Like-named read-outs stand apart in the source and are kept apart here.

As usually defined, the IC50 is the point on the concentration scale where inhibition reaches its midpoint.

Holding throughout (assay type): cell-based
In one test the target is T1, ATM kinase (Homo sapiens, UniProt Q13315).
T1 construct: endogenous in cells; host or cells: HT29 cells (ECACC #85061109)
The test is described as follows: Assay a): ATM cellular potency (pATM Ser1981 in irradiated HT29 cells). How it is done:
Most ATM molecules in the cell are rapidly phosphorylated on this site after doses of radiation as low as 0.5 Gy, and binding of a phosphospecific antibody is detectable after the introduction of only a few DNA double-strand breaks in the cell.
The rationale of the p ATM assay is to identify inhibitors of ATM in cells. HT29 cells are incubated with test compounds for 1 hr prior to X-ray-irradiation. 1 h later the cells are fixed and stained for p ATM (Ser1981). The fluorescence is read on the arrayscan imaging platform.
The following morning compounds of Formula (I) in 100% DMSO were added to assay plates by acoustic dispensing. After 1 h incubation at 37° C. and 5% CO2, plates (up to 6 at a time) were irradiated using the X-RAD 320 instrument (PXi) with equivalent to ˜600cGy. Plates were returned to the incubator for a further 1 h. […] Then 20 μl of 0.1% Triton X100 in PBS was added and incubated for 20 minutes at r.t., to permeabalise cells. Then the plates were washed once with […] PBS, using a Biotek EL405 plate washer.
After 1 h incubation at r.t., the plates were washed three times with 50 μl/well PBS, using a Biotek EL405 plate washer, and plates were sealed and kept in PBS at 4° C. until read. Plates were read using an ArrayScan VTI instrument, using an XF53 filter with 10× objective.

The next test deals with T2, ATR kinase (Homo sapiens, UniProt Q13535).
T2 construct: endogenous in cells; host or cells: HT29 cells (ECACC #85061109)
In words: Assay b): ATR cellular potency (pChk1 Ser345 in HT29 cells after 4NQO). Here is the method:
ATR is a PI 3-kinase-related kinase which phosphorylates multiple substrates on serine or threonine residues in response to DNA damage during or replication blocks. Chk1, a downstream protein kinase of ATR, plays a key role in DNA damage checkpoint control. Activation of Chk1 involves phosphorylation of Ser317 and Ser345 (the latter regarded as the preferential target for phosphorylation/activation by ATR).
The following morning compound of Formula (I) in 100% DMSO were added to assay plates by acoustic dispensing. After 1 h incubation at 37° C. and 5% CO2, 40 nl of 3 mM 4NQO in 100% DMSO was added to all wells by acoustic dispensing, except minimum control wells which were left untreated with 4NQO to generate a null response control. Plates were returned to the incubator for a further 1 h. […] Then 20 μl of 0.1% Triton X100 in PBS was added and incubated for 10 minutes at r.t., to permeabalise cells. Then the plates were washed once with 50 μl/well PBS, using a Biotek EL405 plate washer.
After 2 h incubation at r.t., the plates were washed three times with 50 μl/well PBS, using a Biotek EL405 plate washer, and plates were then sealed with black plate seals until read. Plates were read using an ArrayScan VTI instrument, using an XF53 filter with 10× objective.

In another test the target is T3, mTOR (Homo sapiens, UniProt P42345).
T3 construct: phosphorylation of the Akt protein at Ser473 (AKT lies downstream of PI3Kα in the signal transduction pathway) in the MDA-MB-468 cells; endogenous in cells; host or cells: MDA-MB-468 cells (ATCC HTB 132)
The test is described as follows: Assay d): mTOR cellular potency (phospho-AKT Ser473 in MDA-MB-468 cells). How it is done:
This assay was used to measure mTOR inhibition in cells. The aim of the phospho-AKT cell based mechanism of action assay using the Acumen Explorer is to identify inhibitors of either PI3Kα or mTOR-Rictor (Rapamycin insensitive companion of mTOR). This is measured by any decrease in the phosphorylation of the Akt protein at Ser473 (AKT lies downstream of PI3Kα in the signal transduction pathway) in the MDA-MB-468 cells following treatment with compound.
MDA-MB-468 cells (human breast adenocarcinoma #ATCC HTB 132) were seeded at 1500 cells/well in 40 μl of DMEM containing 10% FBS and 1% glutamine into Greiner 384 well black flat-bottomed plates. Cell plates were incubated for 18 h in a 37° C. incubator before dosing with compounds of Formula (I) in 100% DMSO using acoustic dispensing. Compounds were dosed in a 12 point concentration range into a randomised plate map. Control wells were generated either by dosing of 100% DMSO (max signal) or addition of a reference compound (a PI3K-βinhibitor) that completely eliminated the pAKT signal (min control). Plates were incubated at 37° C. for 2 h; cells were then fixed by the addition of 10 μl of a 3.7% formaldehyde solution. After 30 minutes the plates were washed with PBS using a Tecan PW384 plate washer. Wells were blocked and cells permeabilised with the addition of 40 μl of PBS containing 0.5% Tween20 and 1% Marvel™ (dried milk powder) and incubated for 60 minutes at r.t. The plates were washed with PBS containing 0.5% (v/v) Tween20 and 20 μl rabbit anti-phospho AKT Ser473 (Cell Signalling Technologies, #3787) in same PBS-Tween+1% Marvel™ was added and incubated overnight at 4° C.
Plates were washed 3 times with PBS+0.05% Tween 20 using a Tecan PW384. 20 μl of secondary antibody Alexa Fluor 488 anti-Rabbit (Molecular Probes, #A11008) diluted in PBS+0.05% Tween20 containing 1% Marvel™ was added to each well and incubated for 1 h at r.t. Plates were washed three times as before then 20 μl PBS added to each well and plates sealed with a black plate sealer.
The plates were read on an Acumen plate reader as soon as possible, measuring green fluorescence after excitation with 488 nm laser. Using this system IC50 values were generated and quality of plates was determined by control wells. Reference compounds were run each time to monitor assay performance.

Setting [1] is: HT29 cells, X-ray irradiation, pATM Ser1981; Table 2; read-out: Assay a) ATM Cell IC50.
Where [2] appears, read: HT29 cells, 4NQO, pChk1 Ser345; Table 2; read-out: Assay b) ATR Cell IC50.
Setting [3] is: MDA-MB-468 cells, phospho-AKT Ser473, 2 h; Table 2; read-out: Assay d) mTOR Cell IC50.

T2 sequence (Q13535 whole entry): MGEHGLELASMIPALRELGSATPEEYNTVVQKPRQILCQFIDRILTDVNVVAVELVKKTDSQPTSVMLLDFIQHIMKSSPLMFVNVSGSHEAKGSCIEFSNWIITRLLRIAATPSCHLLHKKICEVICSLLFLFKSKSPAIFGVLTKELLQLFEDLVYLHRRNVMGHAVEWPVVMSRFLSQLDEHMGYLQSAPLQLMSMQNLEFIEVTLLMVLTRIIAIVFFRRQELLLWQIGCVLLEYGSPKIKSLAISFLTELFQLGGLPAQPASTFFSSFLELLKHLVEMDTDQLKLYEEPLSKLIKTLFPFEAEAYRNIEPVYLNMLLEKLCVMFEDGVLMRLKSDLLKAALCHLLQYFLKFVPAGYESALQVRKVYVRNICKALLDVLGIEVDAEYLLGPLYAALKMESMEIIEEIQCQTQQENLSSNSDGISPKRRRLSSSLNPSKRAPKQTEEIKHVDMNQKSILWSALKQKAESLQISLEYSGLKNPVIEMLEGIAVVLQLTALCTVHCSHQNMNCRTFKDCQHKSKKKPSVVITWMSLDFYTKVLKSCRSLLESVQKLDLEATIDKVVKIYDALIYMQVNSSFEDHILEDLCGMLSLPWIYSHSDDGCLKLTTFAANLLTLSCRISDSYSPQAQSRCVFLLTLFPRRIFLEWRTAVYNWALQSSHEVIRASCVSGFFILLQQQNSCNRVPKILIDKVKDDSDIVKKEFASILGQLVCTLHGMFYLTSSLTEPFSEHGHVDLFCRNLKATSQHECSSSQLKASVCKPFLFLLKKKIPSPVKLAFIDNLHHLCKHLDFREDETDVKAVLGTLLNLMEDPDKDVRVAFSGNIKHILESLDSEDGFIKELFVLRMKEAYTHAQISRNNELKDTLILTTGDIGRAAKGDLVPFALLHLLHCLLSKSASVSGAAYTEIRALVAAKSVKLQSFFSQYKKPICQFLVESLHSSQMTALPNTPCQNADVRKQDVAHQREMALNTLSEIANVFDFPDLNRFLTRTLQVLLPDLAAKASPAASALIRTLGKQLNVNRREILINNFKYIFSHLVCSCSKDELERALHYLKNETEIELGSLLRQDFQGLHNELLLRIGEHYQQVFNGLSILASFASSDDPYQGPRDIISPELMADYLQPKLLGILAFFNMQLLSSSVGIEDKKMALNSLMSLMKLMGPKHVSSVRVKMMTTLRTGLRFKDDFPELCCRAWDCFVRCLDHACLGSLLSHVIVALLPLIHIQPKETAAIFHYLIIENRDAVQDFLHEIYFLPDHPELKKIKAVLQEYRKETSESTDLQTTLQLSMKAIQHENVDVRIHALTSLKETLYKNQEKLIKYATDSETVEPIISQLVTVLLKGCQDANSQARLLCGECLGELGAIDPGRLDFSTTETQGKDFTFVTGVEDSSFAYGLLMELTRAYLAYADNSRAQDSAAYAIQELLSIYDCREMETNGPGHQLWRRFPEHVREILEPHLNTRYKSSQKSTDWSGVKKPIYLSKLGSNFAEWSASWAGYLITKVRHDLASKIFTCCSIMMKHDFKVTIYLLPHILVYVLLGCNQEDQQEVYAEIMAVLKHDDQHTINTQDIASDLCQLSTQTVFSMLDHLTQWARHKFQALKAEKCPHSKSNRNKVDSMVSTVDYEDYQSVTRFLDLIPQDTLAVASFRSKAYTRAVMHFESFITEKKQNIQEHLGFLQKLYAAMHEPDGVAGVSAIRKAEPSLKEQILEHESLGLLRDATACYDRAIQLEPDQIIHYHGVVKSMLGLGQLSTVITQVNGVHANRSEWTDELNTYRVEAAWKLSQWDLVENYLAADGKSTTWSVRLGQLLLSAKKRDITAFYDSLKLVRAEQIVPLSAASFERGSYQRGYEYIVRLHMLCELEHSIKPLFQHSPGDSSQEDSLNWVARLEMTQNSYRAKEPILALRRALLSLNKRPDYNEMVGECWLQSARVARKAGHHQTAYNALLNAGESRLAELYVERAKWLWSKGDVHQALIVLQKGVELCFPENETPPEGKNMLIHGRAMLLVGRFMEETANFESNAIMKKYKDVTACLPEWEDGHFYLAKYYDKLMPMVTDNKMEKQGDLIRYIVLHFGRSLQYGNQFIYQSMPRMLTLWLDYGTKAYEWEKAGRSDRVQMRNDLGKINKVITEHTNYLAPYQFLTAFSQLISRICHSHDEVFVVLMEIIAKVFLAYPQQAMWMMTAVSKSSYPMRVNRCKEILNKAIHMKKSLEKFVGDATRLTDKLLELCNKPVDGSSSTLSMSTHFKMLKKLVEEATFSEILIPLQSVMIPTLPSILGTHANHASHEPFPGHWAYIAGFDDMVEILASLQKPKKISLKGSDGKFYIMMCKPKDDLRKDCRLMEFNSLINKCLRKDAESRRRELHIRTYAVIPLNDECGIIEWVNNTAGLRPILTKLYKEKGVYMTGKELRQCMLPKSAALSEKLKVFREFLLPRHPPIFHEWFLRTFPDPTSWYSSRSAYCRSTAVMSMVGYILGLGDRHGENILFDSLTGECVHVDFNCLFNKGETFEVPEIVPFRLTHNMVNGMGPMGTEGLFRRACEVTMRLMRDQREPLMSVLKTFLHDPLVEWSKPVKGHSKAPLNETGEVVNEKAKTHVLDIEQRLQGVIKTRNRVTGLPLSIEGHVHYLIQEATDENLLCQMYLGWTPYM
T2 sequence (Q8WXE1 whole entry partner): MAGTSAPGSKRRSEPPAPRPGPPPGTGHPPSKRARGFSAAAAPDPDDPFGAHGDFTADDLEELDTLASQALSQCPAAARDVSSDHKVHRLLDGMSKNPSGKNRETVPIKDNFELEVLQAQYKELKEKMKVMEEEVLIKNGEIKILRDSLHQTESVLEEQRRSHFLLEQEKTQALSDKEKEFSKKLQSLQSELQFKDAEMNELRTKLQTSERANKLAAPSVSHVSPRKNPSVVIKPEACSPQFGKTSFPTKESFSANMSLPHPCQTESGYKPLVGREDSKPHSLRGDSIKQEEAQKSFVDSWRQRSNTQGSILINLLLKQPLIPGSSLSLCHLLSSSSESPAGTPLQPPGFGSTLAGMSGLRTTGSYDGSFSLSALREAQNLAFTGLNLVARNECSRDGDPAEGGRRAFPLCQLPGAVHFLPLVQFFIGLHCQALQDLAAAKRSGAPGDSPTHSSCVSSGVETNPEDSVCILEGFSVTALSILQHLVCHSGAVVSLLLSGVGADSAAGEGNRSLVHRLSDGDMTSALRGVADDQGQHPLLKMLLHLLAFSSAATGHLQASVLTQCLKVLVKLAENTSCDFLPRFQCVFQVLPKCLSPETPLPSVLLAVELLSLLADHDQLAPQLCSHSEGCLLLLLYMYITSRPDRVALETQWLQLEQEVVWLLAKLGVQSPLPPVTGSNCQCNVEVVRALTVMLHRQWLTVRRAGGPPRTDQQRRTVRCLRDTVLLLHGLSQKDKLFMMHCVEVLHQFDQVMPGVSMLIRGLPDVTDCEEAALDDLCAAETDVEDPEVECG

As for `Cn1c(=O)n([C@H]2CCCOC2)c2c3cc(-c4ccc(OCCCN5CCCC5)cc4)ccc3ncc21` [Example 15, 3-methyl-8-[4-(3-pyrrolidin-1-ylpropoxy)phenyl]-1-[(3S)-tetrahydropyran-3-yl]imidazo[4,5-c]quinolin-2-one], the IC50 on ATM kinase (setting [1]) amounted to 0.911 nM; on ATR kinase (setting [2]) it was 21600 nM; at mTOR (setting [3]), 2580 nM.
With `CO[C@H]1CC[C@H](n2c(=O)n(C)c3cnc4cc(F)c(-c5ccc(OCCCN6CCC6)cc5)cc4c32)C1` (single isomer, unassigned) [Example 23, 8-[4-[3-(azetidin-1-yl)propoxy]phenyl]-7-fluoro-1-[trans-3-methoxycyclopentyl]-3-methyl-imidazo[4,5-c]quinolin-2-one], the IC50 is 1.42 nM at ATM kinase (setting [1]), over 30000 nM at ATR kinase (setting [2]) and 5680 nM on mTOR (setting [3]).
Take `CN(C)CCOc1ccc(-c2ccc3ncc4c(c3c2)n(C2CCC2)c(=O)n4C)cc1` [Example 53, 1-cyclobutyl-8-[4-[2-(dimethylamino)ethoxy]phenyl]-3-methyl-imidazo[4,5-c]quinolin-2-one]: the IC50 on ATM kinase (setting [1]) is 9.38 nM; on ATR kinase (setting [2]), over 30000 nM; at mTOR (setting [3]) it was 10000 nM.
Regarding `CN(C)CCOc1ccc(-c2ccc3ncc4c(c3c2)n(C2CCOCC2)c(=O)n4C)cc1` [Example 54, 8-[4-[2-(dimethylamino)ethoxy]phenyl]-3-methyl-1-tetrahydropyran-4-yl-imidazo[4,5-c]quinolin-2-one], the IC50 was 11.1 nM on ATM kinase (setting [1]), over 24700 nM at ATR kinase (setting [2]) and 7730 nM at mTOR (setting [3]).
On the same counts, the results for `CO[C@H]1C[C@H](n2c(=O)n(C)c3cnc4ccc(-c5ccc(OCCCN(C)C)cc5)cc4c32)C1` [Example 21, 8-[4-[3-(dimethylamino)propoxy]phenyl]-1-(trans-3-methoxycyclobutyl)-3-methyl-imidazo[4,5-c]quinolin-2-one] are 0.533 nM, over 30000 nM and 5070 nM.
`CO[C@H]1CC[C@H](n2c(=O)n(C)c3cnc4ccc(-c5ccc(OCCN(C)C)cc5)cc4c32)C1` [Example 52, 8-[4-[2-(dimethylamino)ethoxy]phenyl]-1-[(1S,3S)-3-methoxycyclopentyl]-3-methyl-imidazo[4,5-c]quinolin-2-one]: the IC50 was 3.57 nM at ATM kinase (setting [1]), 21900 nM on ATR kinase (setting [2]) and 5630 nM at mTOR (setting [3]).
Turning to `CO[C@H]1CC[C@@H](n2c(=O)n(C)c3cnc4ccc(-c5ccc(OCCCN(C)C)cc5)cc4c32)CC1` [Example 25, 8-[4-[3-(dimethylamino)propoxy]phenyl]-1-(cis-4-methoxycyclohexyl)-3-methyl-imidazo[4,5-c]quinolin-2-one], the IC50 at ATM kinase (setting [1]) was 0.089 nM; on ATR kinase (setting [2]) it was 21000 nM; on mTOR (setting [3]) it was 879 nM.
On the same counts, the results for `CO[C@@H]1CC[C@H](n2c(=O)n(C)c3cnc4cc(F)c(-c5ccc(OCCCN(C)C)cc5)cc4c32)C1` (single isomer, unassigned) [Example 37, 8-[4-[3-(dimethylamino)propoxy]phenyl]-7-fluoro-1-[cis-3-methoxycyclopentyl]-3-methyl-imidazo[4,5-c]quinolin-2-one] are 2.95 nM, over 30000 nM and 4110 nM.
Regarding `COC(=O)N1CCC(n2c(=O)n(C)c3cnc4ccc(-c5ccc(OC)nc5)cc4c32)CC1` [CN102372711A Compound 4, reference compound], the IC50 at ATM kinase (HT29 cells, X-ray irradiation, pATM Ser1981; Table 3 comparative data; read-out: Assay a) ATM Cell IC50) turned out to be 11.2 nM; at ATR kinase (HT29 cells, 4NQO, pChk1 Ser345; Table 3 comparative data; read-out: Assay b) ATR Cell IC50), 68.6 nM; on mTOR (MDA-MB-468 cells, phospho-AKT Ser473, 2 h; Table 3 comparative data; read-out: Assay d) mTOR Cell IC50), 72.9 nM.
In the case of `CO[C@H]1CCC[C@H](n2c(=O)n(C)c3cnc4ccc(-c5ccc(OCCCN6CCCC6)cc5)cc4c32)C1` (single isomer, unassigned) [Example 30, 1-[trans-3-methoxycyclohexyl]-3-methyl-8-[4-(3-pyrrolidin-1-ylpropoxy)phenyl]imidazo[4,5-c]quinolin-2-one], the IC50 at ATM kinase (setting [1]) stood at 1.62 nM; at ATR kinase (setting [2]), 15500 nM; at mTOR (setting [3]) it was 1700 nM.
On the same counts, the results for `Cn1c(=O)n([C@H]2CCCOC2)c2c3cc(-c4ccc(OCCN5CCCC5)cc4)ccc3ncc21` [Example 51, 3-methyl-8-[4-(2-pyrrolidin-1-ylethoxy)phenyl]-1-[(3S)-tetrahydropyran-3-yl]imidazo[4,5-c]quinolin-2-one] are 10.2 nM, over 30000 nM and 1760 nM.
Turning to `CO[C@H]1C[C@H](n2c(=O)n(C)c3cnc4ccc(-c5ccc(OCCCN6CCCC6)cc5)cc4c32)C1` [Example 42, 1-(trans-3-methoxycyclobutyl)-3-methyl-8-[4-(3-pyrrolidin-1-ylpropoxy)phenyl]imidazo[4,5-c]quinolin-2-one], the IC50 is 0.689 nM on ATM kinase (setting [1]), over 30000 nM at ATR kinase (setting [2]) and 2170 nM at mTOR (setting [3]).
For the compound `CN(C)CCCOc1ccc(-c2cc3c(cc2F)ncc2c3n(C3CCOCC3)c(=O)n2C)cc1` [Example 45, 8-[4-[3-(Dimethylamino)propoxy]phenyl]-7-fluoro-3-methyl-1-tetrahydropyran-4-yl-imidazo[4,5-c]quinolin-2-one], the IC50 stood at 3.95 nM at ATM kinase (setting [1]), 20000 nM at ATR kinase (setting [2]) and 8650 nM at mTOR (setting [3]).
For `CO[C@@H]1CC[C@@H](n2c(=O)n(C)c3cnc4ccc(-c5ccc(OCCCN6CCCC6)cc5)cc4c32)C1` (single isomer, unassigned) [Example 20, 1-[trans-3-methoxycyclopentyl]-3-methyl-8-[4-(3-pyrrolidin-1-ylpropoxy)phenyl]imidazo[4,5-c]quinolin-2-one], the IC50 on ATM kinase (setting [1]) was found to be 0.452 nM; on ATR kinase (setting [2]), 21300 nM; on mTOR (setting [3]) it was 5500 nM.
Regarding `Cn1c(=O)n([C@@H]2CCCOC2)c2c3cc(-c4ccc(OCCN5CCCC5)cc4)ccc3ncc21` [Example 50, 3-methyl-8-[4-(2-pyrrolidin-1-ylethoxy)phenyl]-1-[(3R)-tetrahydropyran-3-yl]imidazo[4,5-c]quinolin-2-one], the results for the IC50 at ATM kinase (setting [1]), on ATR kinase (setting [2]) and on mTOR (setting [3]) were 13.4 nM, over 25500 nM and at least 30000 nM, respectively.
